For assay [1], the system named is HCV replicon in Huh7 cells. Kind of assay: HCV replicon cell-based assay (replicon FRET assay). On the set-up: species or system HCV strain 1B. The settings on record: EC50 ranges. The text has this:
An HCV replicon whole cell system was established as described by Lohmann V, Korner F, Koch J, Herian U, Theilmann L, Bartenschlager R., Science 285 (5424):110-3 (1999). This system enabled us to evaluate the effects of our HCV Protease compounds on HCV RNA replication. Briefly, using the HCV strain 1B sequence described in the Lohmann paper (Assession number:AJ238799), an HCV cDNA was generated encoding the 5′ internal ribosome entry site (IRES), the neomycin resistance gene, the EMCV (encephalomyocarditis viurs)-IRES and the HCV nonstructural proteins, NS3-NS5B, and 3′ non-translated region (NTR). In vitro transcripts of the cDNA were transfected into the human hepatoma cell line, Huh7. […] Resulting cell lines were characterized for positive and negative strand RNA production and protein production over time.
Huh7 cells, constitutively expressing the HCV replicon, were grown in Dulbecco's Modified Eagle Media (DMEM) containing 10% Fetal calf serum (FCS) and 1 mg/ml G418 (Gibco-BRL). Cells were seeded the night before (1.5×10^4 cells/well) in 96-well tissue-culture sterile plates. Compound and no compound controls were prepared in DMEM containing 4% FCS, 1:100 Penicillin/Streptomysin, 1:100 L-glutamine and 5% DMSO in the dilution plate (0.5% DMSO final concentration in the assay). Compound/DMSO mixes were added to the cells and incubated for 4 days at 37° C. After 4 days, plates were rinsed thoroughly with Phosphate-Buffered Saline (PBS) (3 times 150 μl). The cells were lysed with 25 μl of a lysis assay reagent containing the FRET peptide (RET S1, as described for the in vitro enzyme assay). The lysis assay reagent was made from 5× cell Luciferase cell culture lysis reagent(Promega #E153A) diluted to 1× with distilled water, NaCl added to 150 mM final, the FRET peptide diluted to 10 μM final from a 2 mM stock in 100% DMSO. The plate was then placed into the Cytofluor 4000 instrument which had been set to 340 nm excitation/490 emission, automatic mode for 21 cycles and the plate read in a kinetic mode. EC50 determinations were carried out as described for the IC50 determinations.
On the technique in general: In antiviral work, replicon cells carry a viral genome segment that copies itself.

Assay [2] has as its target T1, HCV NS3/4A protease complex, BMS strain (genotype 1a) (Hepatitis C virus genotype 1a, UniProt P27958, C1454S/C1711G).
T1 construct: recombinant HCV NS3/4A protease complex (amino'acids 1027 to 1711); inferred from the pET21b vector and Ni-NTA purification; made in house; host or cells: Escherichia coli BL21 (DE3), pET21b
Kind of assay: Recombinant HCV NS3/4A protease complex FRET peptide assay (BMS strain). Type of assay: biochemical. The note with it: IC50 ranges. The source says: The purpose of this in vitro assay was to measure the inhibition of HCV NS3 protease complexes, derived from the BMS, H77C or J4L6S strains, as described below, by compounds of the present invention. This assay provides an indication of how effective compounds of the present invention would be in inhibiting HCV proteolytic activity.
Serum from an HCV-infected patient was obtained from Dr. T. Wright, San Francisco Hospital. An engineered full-length cDNA (compliment deoxyribonucleic acid) template of the HCV genome (BMS strain) was constructed from DNA fragments obtained by reverse transcription-PCR (RT-PCR) of serum RNA (ribonucleic acid) and using primers selected on the basis of homology between other genotype 1a strains. From the determination of the entire genome sequence, a genotype 1a was assigned to the HCV isolate according to the classification of Simmonds et al. (See P Simmonds, K A Rose, S Graham, S W Chan, F McOmish, B C Dow, E A Follett, P L Yap and H Marsden, J. Clin. Microbiol., 31 (6), 1493-1503 (1993)). […] The infectious clones, H77C (1a genotype) and J4L6S (1b genotype) were obtained from R. Purcell (N1H) and the sequences are published in Genbank (AAB67036, see Yanagi, M., Purcell, R. H., Emerson, S. U. and Bukh, J. Proc. Natl. Acad. Sci. U.S.A. 94 (16), 8738-8743 (1997); AF054247, see Yanagi, M., St Claire, M., Shapiro, M., Emerson, S. U., Purcell, R. H. and Bukh, J, Virology 244 (1), 161-172. (1998)).
The BMS, H77C and J4L6S strains were used for production of recombinant NS3/4A protease complexes. DNA encoding the recombinant HCV NS3/4A protease complex (amino'acids 1027 to 1711) for these strains were manipulated as described by P. Gallinari et al. (see Gallinari P, Paolini C, Brennan D, Nardi C, Steinkuhler C, De Francesco R. Biochemistry. 38 (17):5620-32, (1999)). Briefly, a three-lysine solubilizing tail was added at the 3′-end of the NS4A coding region. The cysteine in the P1 position of the NS4A-NS4B cleavage site (amino acid 1711) was changed to a glycine to avoid the proteolytic cleavage of the lysine tag. Furthermore, a cysteine to serine mutation was introduced by PCR at amino acid position 1454 to prevent the autolytic cleavage in the NS3 helicase domain. The variant DNA fragment was cloned in the pET21b bacterial expression vector (Novagen)and the NS3/4A complex was expressed in Escherichia. coli strain BL21 (DE3) (Invitrogen) following the protocol described by P. Gallinari et al. (see Gallinari P, Brennan D, Nardi C, Brunetti M, Tomei L, Steinkuhler C, De Francesco R., J. Virol. 72 (8):6758-69 (1998)) with modifications. Briefly, NS3/4A expression was induced with 0.5 mM Isopropyl β-D-1-thiogalactopyranoside (IPTG) for 22 hr at 20° C. A typical fermentation (10L) yielded approximately 80 g of wet cell paste. The cells were resuspended in lysis buffer (10 mL/g) consisting of 25 mM N-(2-Hydroxyethyl)Piperazine-N′-(2-Ethane Sulfonic acid) (HEPES), pH 7.5, 20% glycerol, 500 mM Sodium Chloride (NaCl), 0.5% Triton-X100, 1 ug/ml lysozyme, 5 mM Magnesium Chloride (MgCl2), 1 ug/ml Dnasel, 5 mM β-Mercaptoethanol (OME), Protease inhibitor-Ethylenediamine Tetraacetic acid (EDTA) free (Roche), homogenized and incubated for 20 mins at 4° C. The homogenate was sonicated and clarified by ultra-centrifugation at 235000 g for 1 hr at 4° C. Imidazole was added to the supernatant to a final concentration of 15 mM and the pH adjusted to 8.0. The crude protein extract was loaded on a Nickel-Nitrilotriacetic acid (Ni-NTA) column pre-equilibrated with buffer B (25 mM HEPES, pH 8.0, 20% glycerol, 500 mM NaCl, 0.5% Triton-X100, 15 mM imidazole, 5 mM βME). The sample was loaded at a flow rate of 1 mL/min. The column was washed with 15 column volumes of buffer C (same as buffer B except with 0.2% Triton-X100). The protein was eluted with 5 column volumes of buffer D (same as buffer C except with 200 mM Imidazole). […]

Setting [3] is: Hepatitis C virus, Huh-7, HCV replicon cell assay.
Setting [4] is: IC50, HCV NS3/4A protease FRET assay in vitro.

Where a name gives a salt, the structure may show the parent alone. Read-outs that look alike come from different tables or passages of the source. Some results are limits rather than exact numbers.

T1 sequence (P27958 1027-1711 C1454S/C1711G, one chain of several): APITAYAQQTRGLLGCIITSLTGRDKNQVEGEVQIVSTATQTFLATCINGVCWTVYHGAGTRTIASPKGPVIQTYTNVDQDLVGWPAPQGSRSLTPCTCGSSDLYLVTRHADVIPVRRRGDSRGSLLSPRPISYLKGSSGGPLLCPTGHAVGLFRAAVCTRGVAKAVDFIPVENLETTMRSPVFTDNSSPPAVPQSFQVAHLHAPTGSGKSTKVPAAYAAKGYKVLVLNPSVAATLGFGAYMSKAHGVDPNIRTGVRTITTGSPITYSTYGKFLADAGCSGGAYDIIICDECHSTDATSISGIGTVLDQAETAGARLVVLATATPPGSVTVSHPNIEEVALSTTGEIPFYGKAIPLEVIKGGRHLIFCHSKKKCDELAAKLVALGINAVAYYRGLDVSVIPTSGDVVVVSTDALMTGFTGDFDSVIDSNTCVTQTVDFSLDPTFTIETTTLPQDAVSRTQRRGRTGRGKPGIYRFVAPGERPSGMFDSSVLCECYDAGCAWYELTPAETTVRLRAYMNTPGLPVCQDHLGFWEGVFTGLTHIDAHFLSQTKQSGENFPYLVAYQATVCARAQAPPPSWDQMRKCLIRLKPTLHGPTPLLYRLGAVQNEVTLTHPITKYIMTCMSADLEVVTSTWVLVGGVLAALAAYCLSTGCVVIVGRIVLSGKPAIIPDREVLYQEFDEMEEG

As for `COc1ccc2c(O[C@@H]3C[C@H]4C(=O)N[C@]5(C(=O)NS(=O)(=O)C6CC6)C[C@H]5/C=C\CCCCC[C@H](NC(=O)OC(C)(C)C)C(=O)N4C3)cc(-c3ccccc3)nc2c1` (relative stereo) [Compound 11, (1S,4R,6S,13S,18R)-7-cis-[4-Cyclopropanesulfonyl-aminocarbonyl-18-(7-methoxy-2-phenylquinolin-4-yloxy)-2,15-dioxo-3,16-diazatricyclo-[14.3.0.0^4,6]nona-dec-7-en-14-yl]carbamic acid tert-butyl ester], in assay [1] (HCV replicon cell assay, read-out: EC50), the 50% effective concentration (EC50) was below 50 nM. The IC50 in assay [2] (HCV NS3/4A protease FRET assay in vitro, read-out: IC50) was below 50 nM.
In assay [1] (setting [3]), `COc1ccc2c(O[C@@H]3C[C@H]4C(=O)N[C@]5(C(=O)NS(=O)(=O)C6CC6)C[C@H]5/C=C/CC[C@H](NC(=O)OC(C)(C)C)C(=O)N4C3)cc(-c3ccccc3)nc2c1` [Compound 1, (1S,4R,6S,11S,15R)-7-trans-[4-Cyclopropanesulfonyl-amino-carbonyl-15-(7-methoxy-2-phenylquinolin-4-yloxy)-2,12-dioxo-3,13-diazatricyclo[11.3.0.0^4,6]hexa-dec-7-en-11-yl]carbamic acid tert-butyl ester] showed an EC50 below 50000 nM. For the same molecule, in assay [2] (setting [4]), the IC50 was below 5000 nM.
`COc1ccc2c(O[C@@H]3C[C@H]4C(=O)N[C@]5(C(=O)NS(=O)(=O)C6CC6)CC5/C=C/CC[C@H](N)C(=O)N4C3)cc(-c3ccccc3)nc2c1` (stereo partly drawn) [Compound 2, (1S 4R,6S,11S,15R)-7-trans-Cyclopropanesulfonic acid [11-amino-15-(7-methoxy-2-phenylquinolin-4-yloxy)-2,12-dioxo-3,13-diazatricyclo-[11.3.0.0^4,6]hexadec-7-ene-4-carbonyl]amide dihydrochloride]: in assay [2] (setting [4]), the IC50 is below 5000 nM.
In the case of `COc1ccc2c(O[C@@H]3C[C@H]4C(=O)N[C@]5(C(=O)NS(=O)(=O)C6CC6)CC5/C=C/CCC[C@H](NC(=O)OC(C)(C)C)C(=O)N4C3)cc(-c3ccccc3)nc2c1` (stereo partly drawn) [Compound 3, (1S,4R,6S,12S,16R)-7-trans-[4-Cyclopropanesulfonyl-aminocarbonyl-16-(7-methoxy-2-phenylquinolin-4-yloxy)-2,13-dioxo-3,14-diazatricyclo[12.3.0.0^4,6]heptadec-7-en-12-yl]carbamic acid tert-butyl ester], in assay [1] (setting [3]), the EC50 is below 50000 nM. Also, the IC50 in assay [2] (setting [4]) was below 5000 nM.
Take `COc1ccc2c(O[C@@H]3C[C@H]4C(=O)N[C@]5(C(=O)NS(=O)(=O)C6CC6)CC5/C=C/CCC[C@H](N)C(=O)N4C3)cc(-c3ccccc3)nc2c1` (stereo partly drawn) [Compound 4, (1S,4R,6S,12S,16R)-7-trans-Cyclopropanesulfonic acid [12-amino-16-(7-methoxy-2-phenylquinolin-4-yloxy)-2,13-dioxo-3,14-diazatricyclo [12.3.0.0^4,6]heptadec-7-ene-4-carbonyl]amide dihydrochloride]: the IC50 in assay [2] (setting [4]) was below 50000 nM.
For the molecule `COc1ccc2c(O[C@@H]3C[C@H]4C(=O)N[C@]5(C(=O)NS(=O)(=O)C6CC6)CC5/C=C/CCCC[C@H](NC(=O)OC(C)(C)C)C(=O)N4C3)cc(-c3ccccc3)nc2c1` (stereo partly drawn) [Compound 5, (1S,4R,6S,13S,17R)-7-trans-[4-Cyclopropanesul-fonylamino-carbonyl-17-(7-methoxy-2-phenylquinolin-4-yloxy)-2,14-dioxo-3,15-diazatricyclo[13.3.0.0^4,6]octa-dec-7-en-13-yl]carbamic acid tert-butyl ester], the EC50 in assay [1] (setting [3]) was below 50 nM. In addition, in assay [2] (setting [4]), the IC50 is below 50 nM.
`COc1ccc2c(O[C@@H]3C[C@H]4C(=O)N[C@]5(C(=O)NS(=O)(=O)C6CC6)CC5/C=C\CCCC[C@H](NC(=O)OC(C)(C)C)C(=O)N4C3)cc(-c3ccccc3)nc2c1` (stereo partly drawn) [Compound 7, (1S,4R,65,13S,17R)-7-cis-[4-Cyclopropanesulfonylamino-carbonyl-17-(7-methoxy-2-phenylquinolin-4-yloxy)-2,14-dioxo-3,15-diazatricyclo[13.3.0.0^4,6]octadec-7-en-13-yl]carbamic acid tert-butyl ester] came in with an EC50 in assay [1] (setting [3]) below 50 nM. In assay [2] (setting [4]), the IC50 is below 50 nM.
In assay [1] (setting [3]), `COc1ccc2c(O[C@@H]3C[C@H]4C(=O)N[C@]5(C(=O)NS(=O)(=O)C6CC6)CC5/C=C\CCCC[C@H](N)C(=O)N4C3)cc(-c3ccccc3)nc2c1` (stereo partly drawn) [Compound 8, (1S,4R,6S,13S,17R)-7-cis-Cyclopropanesulfonic acid [13-amino-17-(7-methoxy-2-phenylquinolin-4-yloxy)-2,14-dioxo-3,15-diazatricyclo[13.3.0.0^4,6]octadec-7-ene-4-carbonyl]amide dihydrochloride] returned a half-maximal effective concentration (EC50) below 500 nM. Also, in assay [2] (setting [4]), the IC50 was below 50 nM.
In assay [1] (setting [3]), `COc1ccc2c(O[C@@H]3C[C@H]4C(=O)N[C@]5(C(=O)NS(=O)(=O)C6CC6)C[C@H]5/C=C\CCCCC[C@H](NC(=O)OC(C)(C)C)C(=O)N4C3)cc(-c3ccccc3)nc2c1` [Compound 9, (1S,4R,6S,14S,18R)-7-cis-[4-Cyclopropanesulfonylamino-carbonyl-18-(7-methoxy-2-phenylquinolin-4-yloxy)-2,15-dioxo-3,16-diazatricyclo[14.3.0.0^4,6]nonadec-7-en-14-yl]carbamic acid tert-butyl ester] gave a half-maximal effective concentration (EC50) below 50 nM. The IC50 in assay [2] (setting [4]) was below 50 nM.

The EC50 is the concentration that produces a half-maximal response. Usually IC50 stands for the concentration that gives 50% inhibition.

The values are drawn from patent US6867185B2 (Bristol-Myers Squibb Company, priority 2001, dated 2005).
